Test results from ChEMBL document CHEMBL3885861, “Open TG-GATES”.

Organism: Rattus norvegicus
Assay: Open TG-GATES - Regimen: Daily Repeat
Format: toxicity, organism-based, Sprague-Dawley
Design: regimen Daily Repeat, gender Male, age 6 weeks
Conditions: in vivo, po, 100 mg/kg, route gavage, dose level High; for APTT / Bas / Eos / Fbg / Hb / Ht / Lym / MCH / MCHC / MCV / Mono / Neu / PT / Plat / RBC / Ret / WBC: tissue Blood; for KIDNEY_L / KIDNEY_R / KIDNEY_TOTAL: tissue Kidney; for LIVER: tissue Liver; for A/G / ALP / ALT / AST / BUN / CRE / Ca / Cl / DBIL / GLC / IP / K / LDH / Na / PL / RALB / TBIL / TC / TG / TP / gamma-GTP: tissue Plasma

## Nc1ccc(Cc2ccc(N)cc2)cc1
72 h, time 3 day
  TERMINAL_BW: 208.1 g
  APTT: 17.9 s
  Bas: 0.6%
  Eos: 1%
  Fbg: 405.8 mg/dL
  Hb: 12.8 g/dL
  Ht: 35.9%
  Lym: 66.8%
  MCH: 19.9 pg
  MCHC: 35.8%
  MCV: 55.5 fL
  Mono: 6.2%
  Neu: 25.2%
  PT: 12 s
  Plat: 166 x10_4/uL
  RBC: 646 x10_4/ul
  Ret: 4.3%
  WBC: 223.6 x10_2/uL
  KIDNEY_L: 1 g
  KIDNEY_R: 1 g
  KIDNEY_TOTAL: 2 g
  LIVER: 11.6 g
  A/G: 0.6
  ALP: 3437 IU/L
  ALT: 290.2 IU/L
  AST: 509.2 IU/L
  BUN: 12.6 mg/dL
  CRE: 0.2 mg/dL
  Ca: 11.3 mg/dL
  Cl: 103.8 meq/L
  DBIL: 1.3 mg/dL
  GLC: 145.2 mg/dL
  IP: 7.3 mg/dL
  K: 4.7 meq/L
  LDH: 160.6 IU/L
  Na: 141.6 meq/L
  PL: 325.8 mg/dL
  RALB: 2.3 g/dL
  TBIL: 2.7 mg/dL
  TC: 221 mg/dL
  TG: 69.4 mg/dL
  TP: 5.9 g/dL
  gamma-GTP: 7.8 IU/L
[…], time 7 day
  TERMINAL_BW: 235.7 g
  APTT: 17.6 s
  Bas: 0.6%
  Eos: 0.6%
  Fbg: 273.8 mg/dL
  Hb: 12.4 g/dL
  Ht: 34.8%
  Lym: 66.6%
  MCH: 19.7 pg
  MCHC: 35.6%
  MCV: 55.2 fL
  Mono: 5.8%
  Neu: 25.8%
  PT: 12.5 s
  Plat: 193.4 x10_4/uL
  RBC: 631 x10_4/ul
  Ret: 7.9%
  WBC: 238.1 x10_2/uL
  KIDNEY_L: 1 g
  KIDNEY_R: 1 g
  KIDNEY_TOTAL: 2 g
  LIVER: 13.1 g
  A/G: 0.6
  ALP: 3310.8 IU/L
  ALT: 96.2 IU/L
  AST: 198.8 IU/L
  BUN: 13 mg/dL
  CRE: 0.2 mg/dL
  Ca: 11.6 mg/dL
  Cl: 103.8 meq/L
  DBIL: 0.9 mg/dL
  GLC: 148.4 mg/dL
  IP: 6.9 mg/dL
  K: 4.4 meq/L
  LDH: 95 IU/L
  Na: 143.6 meq/L
  PL: 213.6 mg/dL
  RALB: 2.4 g/dL
  TBIL: 1.7 mg/dL
  TC: 135 mg/dL
  TG: 48.6 mg/dL
  TP: 6.1 g/dL
  gamma-GTP: 6 IU/L
[…], time 14 day
  TERMINAL_BW: 264.2 g
  APTT: 21.7 s
  Bas: 1%
  Eos: 1%
  Fbg: 292.2 mg/dL
  Hb: 11.9 g/dL
  Ht: 33.6%
  Lym: 69.4%
  MCH: 19.8 pg
  MCHC: 35.4%
  MCV: 56 fL
  Mono: 5.6%
  Neu: 22.8%
  PT: 13 s
  Plat: 166.6 x10_4/uL
  RBC: 601.8 x10_4/ul
  Ret: 8.1%
  WBC: 308 x10_2/uL
  KIDNEY_L: 1 g
  KIDNEY_R: 1.1 g
  KIDNEY_TOTAL: 2.1 g
  LIVER: 16.2 g
  A/G: 0.5
  ALP: 2423.6 IU/L
  ALT: 91.4 IU/L
  AST: 260 IU/L
  BUN: 17.6 mg/dL
  CRE: 0.2 mg/dL
  Ca: 11.4 mg/dL
  Cl: 103.6 meq/L
  DBIL: 0.7 mg/dL
  GLC: 143.6 mg/dL
  IP: 6.4 mg/dL
  K: 4.1 meq/L
  LDH: 143.8 IU/L
  Na: 143.6 meq/L
  PL: 226.4 mg/dL
  RALB: 2.5 g/dL
  TBIL: 1.6 mg/dL
  TC: 165.4 mg/dL
  TG: 49.6 mg/dL
  TP: 7 g/dL
  gamma-GTP: 8 IU/L
[…], time 28 day
  TERMINAL_BW: 273.7 g
  APTT: 37.8 s
  Bas: 0.8%
  Eos: 1%
  Fbg: 275.8 mg/dL
  Hb: 12.1 g/dL
  Ht: 33.5%
  Lym: 67.2%
  MCH: 18.4 pg
  MCHC: 36.1%
  MCV: 51.2 fL
  Mono: 4%
  Neu: 26.6%
  PT: 15.2 s
  Plat: 121.3 x10_4/uL
  RBC: 654 x10_4/ul
  Ret: 5.8%
  WBC: 304.5 x10_2/uL
  KIDNEY_L: 1.1 g
  KIDNEY_R: 1 g
  KIDNEY_TOTAL: 2.1 g
  LIVER: 14.1 g
  A/G: 0.5
  ALP: 3009.6 IU/L
  ALT: 116.6 IU/L
  AST: 300 IU/L
  BUN: 19.2 mg/dL
  CRE: 0.3 mg/dL
  Ca: 11.5 mg/dL
  Cl: 102 meq/L
  DBIL: 0.6 mg/dL
  GLC: 144 mg/dL
  IP: 5.6 mg/dL
  K: 4 meq/L
  LDH: 108.6 IU/L
  Na: 146.2 meq/L
  PL: 158.4 mg/dL
  RALB: 2.5 g/dL
  TBIL: 1.7 mg/dL
  TC: 113.4 mg/dL
  TG: 33.2 mg/dL
  TP: 7.6 g/dL
  gamma-GTP: 7.2 IU/L
